# Laboratory results published in US10662156B2, “Guanidine derivative and medical use thereof” (Toray Industries, Inc., priority 2016, dated 2020).
# Counter-ions that a name gives are not always drawn.
# Biological target: recombinant GST fusion MALT1 (human MALT1) (Homo sapiens (Human), UniProt Q9UDY8)
# Experiment: Evaluation of inhibition of protease activity of MALT1 (cleavage of fluorescent peptide substrate Ac-LRSR-AMC)
# Assay type: biochemical
# Details: substrate Ac-LRSR-AMC 20 μmol/L, 30° C. for 80 minutes
# Experimental: The guanidine derivative (I) or the pharmacologically acceptable salt thereof was evaluated for its inhibition of the protease activity of MALT1 in an in vitro experimental system in accordance with the method described in the literature (Cancer Cell, 2012, Vol. 22, p. 825-837). Specifically, the evaluation was conducted by measuring the degree of reduction in fluorescence value by the compound relative to elevation in fluorescence value resulting from the cleavage of a fluorescently labeled artificial peptide substrate by recombinant MALT1.
# A) Preparation of Recombinant GST Fusion MALT1:
# Full-length cDNA of human MALT1 gene (GenBank accession No: AB026118.1) amplified by PCR was inserted in flame to a SalI site located downstream of GST gene in a pGEX6P3 vector (GE Healthcare Japan Corp.) to prepare a vector (hereinafter, referred to as a pGEX6P3-MALT1 vector). Subsequently, E. coli for protein expression (BL21-RIL-codon plus-DE3, Agilent Technologies, Inc.) was transformed with the pGEX6P3-MALT1 vector and then analyzed by ampicillin resistance screening and colony PCR to obtain an E. coli strain expressing recombinant GST fusion MALT1. Protein expression was induced with isopropyl-(3-thiogalactopyranoside. After the expression induction, E. coli precipitates were recovered by centrifugation from the E. coli culture solution, and the E. coli precipitates were homogenized and then centrifuged to obtain a supernatant. The supernatant was purified using GSTrap FF column (GE Healthcare Japan Corp.) to obtain recombinant GST fusion MALT1.
# B) Evaluation of Inhibition of Protease Activity of MALT1:
# To 89 μL of an enzyme solution ([…] GST fusion MALT1, 50 mmol/L MES, 150 mmol/L NaCl, 10% sucrose, 0.1% CHAPS, 10 mmol/L dithiothreitol, and 1 mol/L tri-ammonium citrate) per specimen, 1 μL of a test compound (DMSO-diluted solution) of each concentration was added to prepare a mixed solution. The mixed solution was incubated at room temperature for 30 minutes, followed by the measurement of the fluorescence value of the mixed solution (fluorescence value of the first measurement) (Ex: 380 nm, Em: 460 nm; Envision (Perkin Elmer Inc.)). Next, 10 μL of 200 μmol/L substrate (Ac-LRSR-AMC, SM Biochemicals LLC) was added (final concentration: 20 μmol/L) to the mixed solution, and the mixture was reacted by incubation at 30° C. for 80 minutes, followed by the measurement of the fluorescence value of the reaction solution (fluorescence value of the second measurement) (Ex: 380 nm, Em: 460 nm; Envision (Perkin Elmer Inc.)). A “well nonsupplemented with the test compound (only DMSO was added), nonsupplemented with the enzyme and supplemented with the substrate”, and a “well nonsupplemented with the test compound (only DMSO was added), supplemented with the enzyme and supplemented with the substrate” were established.
# The fluorescence value of the first measurement was defined as “F1”, and the fluorescence value of the second measurement was defined as “F2”. F2−F1 of the “well nonsupplemented with the test compound (only DMSO was added), nonsupplemented with the enzyme and supplemented with the substrate” was defined as “Fback”, F2−F1 of the “well nonsupplemented with the test compound (only DMSO was added), supplemented with the enzyme and supplemented with the substrate” was defined as “Fpositive”, and F2−F1 of the “well supplemented with the test compound, supplemented with the enzyme and supplemented with the substrate” was defined as “Fsample”. The rate of inhibition (%) of the protease activity of MALT1 by the test compound was calculated according to the following expression. Rate of inhibition (%)=100×(1−(Fsample−Fback)/(Fpositive−Fback))
# Sequence of recombinant GST fusion MALT1 (human MALT1) (Q9UDY8 whole entry, the tested form may be a part): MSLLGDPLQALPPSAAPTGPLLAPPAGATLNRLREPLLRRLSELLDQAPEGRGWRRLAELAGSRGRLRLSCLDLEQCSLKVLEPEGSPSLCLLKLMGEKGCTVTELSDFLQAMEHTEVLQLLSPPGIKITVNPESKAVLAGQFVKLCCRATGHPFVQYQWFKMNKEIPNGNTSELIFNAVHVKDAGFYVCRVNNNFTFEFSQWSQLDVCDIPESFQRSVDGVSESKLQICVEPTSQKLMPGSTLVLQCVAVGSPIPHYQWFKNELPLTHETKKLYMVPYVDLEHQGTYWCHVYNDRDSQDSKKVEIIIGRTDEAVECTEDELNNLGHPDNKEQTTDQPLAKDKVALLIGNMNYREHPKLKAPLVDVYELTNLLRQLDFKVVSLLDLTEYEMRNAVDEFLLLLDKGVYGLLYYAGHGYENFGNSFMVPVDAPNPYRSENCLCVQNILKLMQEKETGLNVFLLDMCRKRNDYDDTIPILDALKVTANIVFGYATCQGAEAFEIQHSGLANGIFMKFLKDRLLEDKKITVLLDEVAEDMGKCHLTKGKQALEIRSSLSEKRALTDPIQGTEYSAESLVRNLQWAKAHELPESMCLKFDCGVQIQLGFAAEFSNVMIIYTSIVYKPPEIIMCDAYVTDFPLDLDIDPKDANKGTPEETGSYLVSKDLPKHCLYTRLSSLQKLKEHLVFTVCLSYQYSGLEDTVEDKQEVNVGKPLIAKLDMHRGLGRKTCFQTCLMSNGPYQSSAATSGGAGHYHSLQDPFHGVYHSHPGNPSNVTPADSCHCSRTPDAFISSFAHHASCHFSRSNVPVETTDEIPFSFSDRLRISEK
row,SMILES,IC50 [µM]
1,"N/C(=N\S(=O)(=O)c1ccccc1)NCc1cnc(-c2cccc(Cl)c2)c(-c2ccc(Cl)cc2)c1 [Compound of Example 4, N-(amino(((6-(3-chlorophenyl)-5-(4-chlorophenyl)pyridin-3-yl)methyl)amino)methylene)benzenesulfonamide]",1.4
2,"N/C(=N\S(=O)(=O)C1CCCC1)NCc1cnc(-c2ccc(Cl)cc2)c(-c2ccc(Cl)cc2)c1 [Compound of Example 57, N-(amino(((5,6-bis(4-chlorophenyl)pyridin-3-yl)methyl)amino)methylene)cyclopentanesulfonamide]",0.517
3,"N/C(=N\S(=O)(=O)c1cccc(O)c1)NCc1cnc(-c2ccc(Cl)cc2)c(-c2ccc(Cl)cc2)c1 [Compound of Example 96, N-(amino(((5,6-bis(4-chlorophenyl)pyridin-3-yl)methyl)amino)methylene)-3-hydroxybenzenesulfonamide Hydrochloride]",2.14
4,"N/C(=N\C(=O)c1ccccc1F)NCc1cnc(-c2ccc(Cl)cc2)c(-c2ccc(Cl)cc2)c1 [Compound of Example 67, N-(amino(((5,6-bis(4-chlorophenyl)pyridin-3-yl)methyl)amino)methylene)-2-fluorobenzamide]",0.644
5,"Cn1cc(S(=O)(=O)/N=C(\N)NCc2cnc(-c3ccc(Cl)cc3)c(-c3ccc(Cl)cc3)c2)cn1 [Compound of Example 53, N-(amino(((5,6-bis(4-chlorophenyl)pyridin-3-yl)methyl)amino)methylene)-1-methyl-1H-pyrazole-4-sulfonamide]",2.01
6,"Cc1ccc(-c2ncc(CN/C(N)=N/S(=O)(=O)c3ccccc3)cc2-c2ccc(C(F)(F)F)cc2)cc1 [Compound of Example 25, N-(amino(((6-(4-methylphenyl)-5-(4-(trifluoromethyl)phenyl)pyridin-3-yl)methyl)amino)methylene)benzenesulfonamide hydrochloride]",1.84
7,"N/C(=N\S(=O)(=O)c1cccc(F)c1)NCc1cnc(-c2ccc(Cl)cc2)c(-c2ccc(Cl)cc2)c1 [Compound of Example 27, N-(amino(((5,6-bis(4-chlorophenyl)pyridin-3-yl)methyl)amino)methylene)-3-fluorobenzenesulfonamide]",0.532
8,"N/C(=N\S(=O)(=O)C1CCCCC1)NCc1cnc(-c2ccc(Cl)cc2)c(-c2ccc(Cl)cc2)c1 [Compound of Example 56, N-(amino(((5,6-bis(4-chlorophenyl)pyridin-3-yl)methyl)amino)methylene)cyclohexanesulfonamide]",0.429
9,"N/C(=N\S(=O)(=O)c1ccccc1)NCc1cnc(-c2ccc(O)cc2)c(-c2ccc(Cl)cc2)c1 [Compound of Example 95, N-(amino(((5-(4-chlorophenyl)-6-(4-hydroxyphenyl)pyridin-3-yl)methyl)amino)methylene)benzenesulfonamide Hydrochloride]",1.03
10,"NC(=O)/N=C(\N)NCc1cnc(-c2ccc(Cl)cc2)c(-c2ccc(Cl)cc2)c1 [Compound of Example 41, 1-(amino(((5,6-bis(4-chlorophenyl)pyridin-3-yl)methyl)amino)methylene)urea Hydrochloride]",0.679
11,"CCCCCC(=O)/N=C(\N)NCc1cnc(-c2ccc(Cl)cc2)c(-c2ccc(Cl)cc2)c1 [Compound of Example 65, N-(amino(((5,6-bis(4-chlorophenyl)pyridin-3-yl)methyl)amino)methylene)hexanamide]",0.462
12,"N/C(=N\C(=O)c1cscn1)NCc1cnc(-c2ccc(Cl)cc2)c(-c2ccc(Cl)cc2)c1 [Compound of Example 83, N-(amino(((5,6-bis(4-chlorophenyl)pyridin-3-yl)methyl)amino)methylene)thiazole-4-carboxamide]",0.942

# Compounds with a lower IC50, results first:
row,IC50 [µM],SMILES
1,0.192,"N#Cc1ccc(-c2ncc(CN/C(N)=N/S(=O)(=O)c3ccccc3)cc2-c2ccc(Cl)cc2)cc1 [Compound of Example 7, N-(amino(((5-(4-chlorophenyl)-6-(4-cyanophenyl)pyridin-3-yl)methyl)amino)methylene)benzenesulfonamide]"
2,0.023,"NC(=NS(=O)(=O)c1cccs1)NCc1cc(-c2ccc(Cl)cc2)c(-c2ccc(Cl)cc2)cn1 [Compound of Example 43, N-(amino(((4,5-bis(4-chlorophenyl)pyridin-2-yl)methyl)amino)methylene)thiophene-2-sulfonamide]"
3,0.32,"N#Cc1cccc(S(=O)(=O)/N=C(\N)NCc2cnc(-c3ccc(Cl)cc3)c(-c3ccc(Cl)cc3)c2)c1 [Compound of Example 47, N-(amino(((5,6-bis(4-chlorophenyl)pyridin-3-yl)methyl)amino)methylene)-3-cyanobenzenesulfonamide]"
4,0.296,"N/C(=N\C(=O)CCc1ccccc1)NCc1cnc(-c2ccc(Cl)cc2)c(-c2ccc(Cl)cc2)c1 [Compound of Example 74, N-(amino(((5,6-bis(4-chlorophenyl)pyridin-3-yl)methyl)amino)methylene)-3-phenylpropanamide]"
5,0.1,"N/C(=N\S(=O)(=O)c1cccs1)NCc1cnc(-c2ccc(Cl)cc2)c(-c2ccc(Cl)cc2)c1 [Compound of Example 29, N-(amino(((5,6-bis(4-chlorophenyl)pyridin-3-yl)methyl)amino)methylene)thiophene-2-sulfonamide]"
6,0.221,"NC(=NS(=O)(=O)c1ccccc1)NCc1ccc(-c2ccc(Cl)cc2)c(-c2ccc(Cl)cc2)n1 [Compound of Example 45, N-(amino(((5,6-bis(4-chlorophenyl)pyridin-2-yl)methyl)amino)methylene)benzenesulfonamide Hydrochloride]"
7,0.156,"N/C(=N\S(=O)(=O)c1ccoc1)NCc1cnc(-c2ccc(Cl)cc2)c(-c2ccc(Cl)cc2)c1 [Compound of Example 32, N-(amino(((5,6-bis(4-chlorophenyl)pyridin-3-yl)methyl)amino)methylene)furan-3-sulfonamide]"
8,0.326,"COc1ccccc1S(=O)(=O)/N=C(\N)NCc1cnc(-c2ccc(Cl)cc2)c(-c2ccc(Cl)cc2)c1 [Compound of Example 49, N-(amino(((5,6-bis(4-chlorophenyl)pyridin-3-yl)methyl)amino)methylene)-2-methoxybenzenesulfonamide]"
9,0.237,"Cc1ccc(-c2ncc(CN/C(N)=N/S(=O)(=O)c3ccccc3)cc2-c2ccc(Cl)cc2)c(F)c1 [Compound of Example 13, N-(amino(((5-(4-chlorophenyl)-6-(2-fluoro-4-methylphenyl)pyridin-3-yl)methyl)amino)methylene)benzenesulfonamide]"
10,0.14,"COc1ccc(-c2cc(CN/C(N)=N/S(=O)(=O)c3ccccc3)cnc2-c2ccc(C)cc2)cc1 [Compound of Example 24, N-(amino(((5-(4-methoxyphenyl)-6-(4-methylphenyl)pyridin-3-yl)methyl)amino)methylene)benzenesulfoamide]"
11,0.356,"N/C(=N\S(=O)(=O)c1ccc(F)cc1)NCc1cnc(-c2ccc(Cl)cc2)c(-c2ccc(Cl)cc2)c1 [Compound of Example 28, N-(amino(((5,6-bis(4-chlorophenyl)pyridin-3-yl)methyl)amino)methylene)-4-fluorobenzenesulfonamide]"
12,0.234,"Cc1nc(-c2ccc(Cl)cc2)c(-c2ccc(Cl)cc2)cc1CN/C(N)=N/S(=O)(=O)c1ccccc1 [Compound of Example 90, N-(amino(((5,6-bis(4-chlorophenyl)-2-methylpyridin-3-yl)methyl)amino)methylene)benzenesulfonamide]"
13,0.315,"N/C(=N\S(=O)(=O)c1ccccc1F)NCc1cnc(-c2ccc(Cl)cc2)c(-c2ccc(Cl)cc2)c1 [Compound of Example 26, N-(amino(((5,6-bis(4-chlorophenyl)pyridin-3-yl)methyl)amino)methylene)-2-fluorobenzenesulfonamide]"
